The source of these data is patent US11857596B2, “Animal feed additive and animal feed” (priority 2018, dated 2024).

The subject of data set [1] is Caco-2 cells (human intestinal epithelial cells). Kind of data set: Membrane strengthening experiment (TER recovery of barrier function after TNF-α). The data set is classed as cell-based. The conditions noted are these: for function of strengthening the barrier function (membrane-strengthening ability): result in words, FIG. 1A-1H.
Data set [2] concerns Salmonella enterica (SE). In words: Salmonella infection test in chickens (body weight gain and feed conversion ratio). The format is in vivo, chickens (broilers). The conditions noted are these: for BWG / FCR: 0-3 week, SE orally at 2 days of age; for body weight gain effect and feed conversion ratio improvement effect: result in words, Salmonella enterica infected broilers, test feed 21 days. Here is the method:
The coated-Tyr and Tyr prepared in the same manner as in Example 2-1 were added to the feed matrix having the composition presented in Table 2 so that the amount of the core material was 200 ppm, to thereby prepare a feed. Broilers at 1 day of age were introduced into a breeding facility for infection test (6 broilers/repeat and 2 repeats/test group), then Salmonella enterica (SE) was orally administered to the broilers at 2 days of age, and the test feed was fed for 21 days to evaluate the body weight gain effect and feed conversion ratio of chickens. Note that a conventional antimicrobial growth promoter, enramycin, was used as a positive control. As enramycin, a commercially available product (“Enramycin F-80” manufactured by Scientific Feed Laboratory Co., Ltd., uncoated) was used as it was.
The results are presented with a negative control of 100. […]
Broilers at 0 days of age were introduced into a breeding facility for infection test (6 broilers/repeat and 2 repeats/test group), then Salmonella enterica (SE) was orally administered to the broilers at 2 days of age, and the test feed was fed for 21 days to evaluate the body weight gain effect and feed conversion ratio. Note that a conventional antimicrobial growth promoter, enramycin, was used as a positive control. As enramycin, a commercially available product (“Enramycin F-80” manufactured by Scientific Feed Laboratory Co., Ltd., uncoated) was used as it was.

Another data set relates to Clostridium perfringens. The data set is classed as cell-based. More on the design: key: “+” to “+++++”: indicates the strength of antibacterial effect. The more “+”, the stronger the effect.; “+” to “+++++”: indicates the strength of antibacterial effect. The more “+”, the stronger the effect.; “+” to “+++++”: indicates the strength of antibacterial effect. The more “+”, the stronger the effect.; “+” to “+++++”: indicates the strength of antibacterial effect. The more “+”, the stronger the effect.; “+” to “+++++”: indicates the strength of antibacterial effect. The more “+”, the stronger the effect.; “ND”: indicates no effect detected (not detected). To be noted: Nisin A and Duramycin 1 mg/ml, others 10-fold concentrated culture supernatant of producers.

Data set [3] deals with Lactobacillus acidophilus. Kind of data set: Antibacterial spectrum of bacteriocin, spot-on lawn method. The format is cell-based. On the set-up: key: “+” to “+++++”: indicates the strength of antibacterial effect. The more “+”, the stronger the effect.; “+” to “+++++”: indicates the strength of antibacterial effect. The more “+”, the stronger the effect.; “+” to “+++++”: indicates the strength of antibacterial effect. The more “+”, the stronger the effect.; “+” to “+++++”: indicates the strength of antibacterial effect. The more “+”, the stronger the effect.; “+” to “+++++”: indicates the strength of antibacterial effect. The more “+”, the stronger the effect.; “ND”: indicates no effect detected (not detected). The conditions noted are these: Nisin A and Duramycin 1 mg/ml, others 10-fold concentrated culture supernatant of producers.

For data set [4], the system named is Lactobacillus salivarius AJ110152. The description is as above. The data set is classed as cell-based. On the set-up: key: “+” to “+++++”: indicates the strength of antibacterial effect. The more “+”, the stronger the effect.; “+” to “+++++”: indicates the strength of antibacterial effect. The more “+”, the stronger the effect.; “+” to “+++++”: indicates the strength of antibacterial effect. The more “+”, the stronger the effect.; “+” to “+++++”: indicates the strength of antibacterial effect. The more “+”, the stronger the effect.; “+” to “+++++”: indicates the strength of antibacterial effect. The more “+”, the stronger the effect.; “ND”: indicates no effect detected (not detected). To be noted: Nisin A and Duramycin 1 mg/ml, others 10-fold concentrated culture supernatant of producers.

The test system of data set [5] is Bifidobacterium thermophilum AJ110569. The description is as above. The data set is classed as cell-based. More on the design: key: “+” to “+++++”: indicates the strength of antibacterial effect. The more “+”, the stronger the effect.; “+” to “+++++”: indicates the strength of antibacterial effect. The more “+”, the stronger the effect.; “+” to “+++++”: indicates the strength of antibacterial effect. The more “+”, the stronger the effect.; “+” to “+++++”: indicates the strength of antibacterial effect. The more “+”, the stronger the effect.; “+” to “+++++”: indicates the strength of antibacterial effect. The more “+”, the stronger the effect.; “ND”: indicates no effect detected (not detected). The conditions noted are these: Nisin A and Duramycin 1 mg/ml, others 10-fold concentrated culture supernatant of producers.

Data set [6] concerns Bacteroides fragilis JCM11019. Described as above. To be noted: Nisin A and Duramycin 1 mg/ml, others 10-fold concentrated culture supernatant of producers. More on the design: key: “+” to “+++++”: indicates the strength of antibacterial effect. The more “+”, the stronger the effect.; “+” to “+++++”: indicates the strength of antibacterial effect. The more “+”, the stronger the effect.; “+” to “+++++”: indicates the strength of antibacterial effect. The more “+”, the stronger the effect.; “+” to “+++++”: indicates the strength of antibacterial effect. The more “+”, the stronger the effect.; “+” to “+++++”: indicates the strength of antibacterial effect. The more “+”, the stronger the effect.; “ND”: indicates no effect detected (not detected). The data set is classed as cell-based.

The next data set deals with Escherichia coli MG1655. Described as above. The format is cell-based. More on the design: key: “+” to “+++++”: indicates the strength of antibacterial effect. The more “+”, the stronger the effect.; “+” to “+++++”: indicates the strength of antibacterial effect. The more “+”, the stronger the effect.; “+” to “+++++”: indicates the strength of antibacterial effect. The more “+”, the stronger the effect.; “+” to “+++++”: indicates the strength of antibacterial effect. The more “+”, the stronger the effect.; “+” to “+++++”: indicates the strength of antibacterial effect. The more “+”, the stronger the effect.; “ND”: indicates no effect detected (not detected). The conditions noted are these: Nisin A and Duramycin 1 mg/ml, others 10-fold concentrated culture supernatant of producers.

For data set [7], the system named is Enterococcus faecalis AJ110149. The description is as above. The format is cell-based. On the set-up: key: “+” to “+++++”: indicates the strength of antibacterial effect. The more “+”, the stronger the effect.; “+” to “+++++”: indicates the strength of antibacterial effect. The more “+”, the stronger the effect.; “+” to “+++++”: indicates the strength of antibacterial effect. The more “+”, the stronger the effect.; “+” to “+++++”: indicates the strength of antibacterial effect. The more “+”, the stronger the effect.; “+” to “+++++”: indicates the strength of antibacterial effect. The more “+”, the stronger the effect.; “ND”: indicates no effect detected (not detected). To be noted: Nisin A and Duramycin 1 mg/ml, others 10-fold concentrated culture supernatant of producers.

In data set [8] the test system is Lactobacillus acidophilus AJ13778. Kind of data set: Minimum inhibitory concentration, spot-on-lawn method. The data set is classed as cell-based. To be noted: indicator strain Lactobacillus acidophilus AJ13778; MRS, 37° C.
In data set [9] the test system is Lactobacillus salivarius AJ110152. The description is as above. The data set is classed as cell-based. To be noted: indicator strain Lactobacillus salivarius AJ110152; MRS, 37° C.
The test system of data set [10] is Clostridium perfringens AJ3350. Kind of data set: microbe, parasite or virus in culture. The data set is classed as cell-based.
The test system of data set [11] is Enterococcus faecalis AJ110149. In words: Minimum inhibitory concentration, spot-on-lawn method. The format is cell-based. The conditions noted are these: indicator strain Enterococcus faecalis AJ110149; MRS, 30° C.; ND = no effect detected.
The test system of a further data set is Escherichia coli MG1665. Described as above. The data set is classed as cell-based.
Data set [12] relates to Bacteroides fragilis JCM11019. The data set is described as above. The format is cell-based. To be noted: indicator strain Bacteroides fragilis JCM11019; GAM, 37° C.
In data set [13] the test system is Bifidobacterium thermophilum AJ110569. Described as above. The data set is classed as cell-based. The conditions noted are these: indicator strain Bifidobacterium thermophilum AJ110569; GAM, 37° C.
In data set [14] the test system is Salmonella enterica AJ2785. In words: microbe, parasite or virus in culture. The format is cell-based.
Data set [15] relates to Salmonella enterica (SE). In words: Salmonella infection test in chickens (body weight gain and feed conversion ratio). The conditions noted are these: Table 5; 0-3 week; addition 10 ppm; SE orally at 2 days of age; negative control = 100. The data set is classed as in vivo, chickens (broilers).
Data set [16] is described as follows: Chicken growth test (body weight gain and feed conversion ratio). The conditions noted are these: for BWG / FCR: Table 4, 0-3 weeks, addition 200 ppm (core material) in feed; for body weight gain effect and feed conversion ratio improvement effect: result in words, healthy broilers, 0 to 21 days of age. The data set is classed as in vivo, broiler chickens.
Data set [17] is described as follows: Metabolome analysis of intestinal tract contents and blood. The data set is classed as in vivo, chickens. The source says:
It is thus considered that coated-Phe and coated-Tyr are assimilated by intestinal bacteria in feces and rapidly metabolized in blood.

For data set [18] the following is noted: 500 to 1,000 ppm of quercetin added to the feed; cited from earlier work.
The test system of another data set is intestinal microbiota. To be noted: cited from earlier work.
Setting [19] is: Table 8, 10 ppm, control group = 100%.
Setting [20] is: material conc. 100 uM, comparison value with Ctr (TNFα alone), 24 h.
The mark [21] stands for this setting: Table 5, addition 200 ppm, negative control = 100.

No end group written: not given here.

“nisin A (ITSISLCTPGCKTGALMGCNMKTATCHCSIHVSK; not fully specified (some residues, bridges); also: lantibiotic (ring and dehydro residues not placed); UniProt P13068 24-57, looked up) [reagent manufactured by Sigma-Aldrich, nisin content 2.5% by mass, balance sodium chloride and denatured milk solids]”: in [1], the “function of strengthening the barrier function (membrane-strengthening ability)” value (“function” for short) is given as “observed to have the function of strengthening the barrier function”. The BWG in the data set on Salmonella enterica (SE) [2] (setting [19]) is given as 101%. In addition, the FCR in the data set on Salmonella enterica (SE) [2] (setting [19]) came out at 100%. Further, the “body weight gain effect and feed conversion ratio improvement effect” value with Salmonella enterica (SE) [2] is on record as “no effect”. Further, the “Antibacterial spectrum (strength of antibacterial effect)” value (shortened to “Antibacterial spectrum”) in the data set with Clostridium perfringens was “+++++”; in [3] it was “++++”; in data set [4] it was “+++++”; in data set [5] it was “+++++”; in data set [6], “++++”; in the data set on Escherichia coli MG1655, “++”. For the same molecule, in data set [7], the “Antibacterial spectrum” value is given as “+++++”.

As to enramycin, in data set [1] (material conc. 100 uM, TER barrier function recovery, 24 h), the “Recovery ratio (%)” value turned out to be 144%. Besides, the Recovery ratio/ctr in data set [1] (setting [20]) was determined as 1.28. The BWG with Salmonella enterica (SE) [2] (setting [19]) and in the data set with Salmonella enterica (SE) [15] was 107% in each case. The FCR in the data set with Salmonella enterica (SE) [2] (setting [19]) and in the data set with Salmonella enterica (SE) [15] was 98% in each case. Moreover, the Minimum inhibitory concentration in [8] is recorded as 0.5 mg/mL; in data set [9], 0.5 mg/mL; in [10], 1 mg/mL; in [11], 4 mg/mL; in the data set on Escherichia coli MG1665, more than 100 mg/mL; in data set [12], 64 mg/mL. The Minimum inhibitory concentration in [13] was 0.5 mg/mL; in [14], more than 100 mg/mL.

Consider `N[C@@H](Cc1ccc(O)cc1)C(=O)O` [Tyrosin, tyrosine], for which the Recovery ratio/ctr in data set [1] (24 h, 20 µM) was found to be 1.19. Also, in [1] (Homo sapiens, Caco-2, material conc. 20 uM, TER barrier function recovery, 24 h, read-out: Recovery ratio (%)), the activity at 20 µM turned out to be 138%. Further, the “function” value in data set [1] is on record as “observed to have the function of strengthening the barrier function”. Further, in data set [16], the BWG is given as 104%; the FCR was 98%; the “body weight gain effect and feed conversion ratio improvement effect” value is reported as “A certain degree of body weight gain effect was confirmed”. For the same molecule, in the data set with Salmonella enterica (SE) [2] (setting [21]), the BWG came to 96% and the FCR was 100%. Moreover, the “body weight gain effect and feed conversion ratio improvement effect” value in the data set with Salmonella enterica (SE) [2] is recorded as “no effect”. Moreover, the “detection in the intestinal tract contents or blood” value in data set [17] (metabolome analysis, chicken growth test of 2-3) was “not detected”.

For `N[C@@H](Cc1ccccc1)C(=O)O` [Phe, phenylalanine], in data set [16], the BWG was determined as 106%; the FCR amounted to 98%; the “body weight gain effect and feed conversion ratio improvement effect” value is recorded as “A certain degree of body weight gain effect was confirmed”. Besides, the “detection in the intestinal tract contents or blood” value in data set [17] (in vivo) is “not detected”.

Take duramycin: in data set [1] (material conc. 1 uM, TER barrier function recovery, 24 h), the “Recovery ratio (%)” value was determined as 120%. Also, the Recovery ratio/ctr in [1] (material conc. 1 uM, comparison value with Ctr (TNFα alone), 24 h) is listed as 1.04. Also, the “Antibacterial spectrum” value is given as “+++++” in the data set on Clostridium perfringens, “+” in [3], “++” in data set [5] and “+” in [6].

Take `O=c1c(O)c(-c2ccc(O)c(O)c2)oc2cc(O)cc(O)c12` [Quercetin, quercetin]: the activity at 100 µM in [1] (Homo sapiens, Caco-2, material conc. 100 uM, TER barrier function recovery, 24 h, read-out: Recovery ratio (%)) was 138%. In addition, the Recovery ratio/ctr in data set [1] (setting [20]) came to 1.23. In addition, the “function” value in [1] is recorded as “observed to have the function of strengthening the barrier function”. Also, in [18], the “body weight gain effect (body weight gain efficiency) and feed consumption” value was “did not increase”; the feed conversion ratio entry was “remained almost unchanged or slightly decreased”. The “effect on the intestinal microbiota” value in the data set on intestinal microbiota is “negative effect”.
